In patent publication US10781185B2, “Heterocyclic compounds for the inhibition of PASK” (BioEnergenix LLC, priority 2009, dated 2020):
pIC50: −log10 of the molar value.

Legend:
PASK [1] = molecular target: PASK (Homo sapiens (Human), UniProt Q96RG2); test: PAS Kinase FRET Assay; format: biochemical; conditions: TR-FRET, Ulight-peptide substrate; read-out: IC50 Kinase Domain
Source text: PAS Kinase FRET Assay The aim of the FRET assay is to determine the inhibition potential of test compounds on targeted kinase. This assay platform provides a homogenous screening method for measuring kinase activity by quantitating the amount of phospho-substrate in solution following a kinase reaction. In the presence of kinase and ATP, the Ulight-peptide is phosphorylated and captured by an anti-phospho-substrate antibody, which brings the Eu chelate donor and Ulight acceptor dyes into close proximity. […] The contents of the plate were and incubated at RT for 1 h. The reaction was stopped by adding 5 μl of stop solution to each test well followed by mixing and incubation at RT for 10 minutes. 5 μl of detection mix (detection antibody diluted in detection buffer) was added; the contents of the plate were mixed and then incubated in the dark for 1 hour at RT. […] The results were graphed to calculate the EC50. Titration of ATP at the EC50 concentration of kinase to determine ATP Km,app. was performed using the following method. […] The contents of the plate were and incubated at RT for 1 h. The reaction was stopped by adding 5 μl of stop solution to each test well followed by mixing and incubation at RT for 10 minutes. 5 μl of detection mix (detection antibody diluted in detection buffer) was added; the contents of the plate were mixed and then incubated in the dark for 1 hour at RT. […] The results were graphed to calculate the EC50 as the ATP Km,app. […] If compound is not soluble under this condition, it was diluted to 3 mM. Kinase reaction buffer was prepared containing 10 mM MgCl2, 50 mM HEPES, 1 mM EGTA, 0.01% TWEEN-20, 2 mM DTT. […] As a positive control, 2.5 μl of positive compound was added to assay wells, and 2.5 μl of DMSO to assay wells as vehicle control. Kinase solution was prepared in reaction buffer at 2× final assay concentration. Kinase solution (5 μl) was added to each well of the assay plate. The substrate and ATP solution was prepared in kinase reaction buffer at 4× final assay concentration. The kinase reaction was started by adding 2.5 μl of substrate+ATP mix solution to each well of the assay plate. The plate is mixed on a plate shaker; then covered and allowed to react for 2 hours in the dark at 25° C. without shaking. The reaction was stopped by adding 5 μl of stop solution to each test well followed by mixing and incubation at RT for 10 minutes in the dark. 5 μl of detection mix (detection antibody diluted in detection buffer) was added; the contents of the plate were mixed and then incubated in the dark for 1 hour at RT.

PASK [2] = molecular target: PASK (UniProt # Q96RG2; human recombinant N-terminal GST tagged construct, residues 879-1323) (Homo sapiens (Human), UniProt Q96RG2); test: PASK ATP Radiochemical Assay; format: biochemical; conditions: 33P-ATP radiochemical, Myelin Basic Protein substrate; read-out: IC50 Kinase Domain
Sequence of PASK (UniProt # Q96RG2; human recombinant N-terminal GST tagged construct, residues 879-1323) (Homo sapiens (Human), UniProt Q96RG2) (Q96RG2 879-1323, change not shown): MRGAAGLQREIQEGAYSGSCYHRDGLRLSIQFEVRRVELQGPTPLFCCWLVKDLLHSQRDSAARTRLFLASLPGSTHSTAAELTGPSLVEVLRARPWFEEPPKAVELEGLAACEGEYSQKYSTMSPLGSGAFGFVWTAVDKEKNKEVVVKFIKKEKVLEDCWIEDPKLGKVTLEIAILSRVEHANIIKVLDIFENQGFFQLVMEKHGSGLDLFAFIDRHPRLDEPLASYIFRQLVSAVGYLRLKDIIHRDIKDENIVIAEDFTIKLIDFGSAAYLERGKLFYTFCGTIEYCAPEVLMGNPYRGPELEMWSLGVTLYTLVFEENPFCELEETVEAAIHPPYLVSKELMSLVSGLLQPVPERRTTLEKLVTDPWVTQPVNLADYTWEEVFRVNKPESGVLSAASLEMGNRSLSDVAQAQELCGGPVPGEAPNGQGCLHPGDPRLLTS
Description: PASK ATP Radiochemical Assay
Test compounds in DMSO are then added and the mixture, followed by delivery of ^33P-ATP (specific activity 0.01 μCi/μl final) to initiate the reaction. […] The entire reaction mixture is washed through onto a P81 Phosphocellulose paper and washed three times for 10 minutes in 75 mM phosphoric acid and once in methanol prior to drying and scintillation counting.

[3] = tested on: C57Bl6 mice fed a high fat diet; test: Mouse High Fat Dietary Model with fast/re-feed; format: in vivo; conditions: for reduction in body weight vs vehicle: fast/re-feed mice
Description: Mouse High Fat Dietary Model
A standard model of human hyperlipidemia and insulin resistance is the mouse fed a high fat diet for several weeks (31, 33). Additionally, since hepatic lipid synthesis is known to be regulated by food consumption, the fast/re-feed cycle of Horton et al. (32) was incorporated into the chronic high fat diet model. The compound was evaluated in this model as an agent to restore insulin sensitivity and lower blood lipids. The chronic high fat diet was fed to mice to simulate a standard Western diet which is elevated in calories from high fat and carbohydrate intake. This and similar models of dietary induced obesity, insulin insensitivity and elevated serum lipids and cholesterol are used as mouse and rat models of human pathology including hyperlipidemia, type II diabetes, atherosclerosis, obesity, cardiovascular and liver disease. These models have been used as excellent predictors of efficacy in human clinical trials (PPAR and FXR agonists).
The farnesoid X receptor (FXR) is a ligand-activated transcription factor and a member of the nuclear receptor superfamily. […] While the mechanism of action of FXR agonists is clearly distinct from PASK inhibition, WAY-362450 has been used as a positive control compound producing physiologically beneficial changes in glucose and lipid metabolism resembling inhibition of PASK. Throughout these in vivo assays, WAY-362450 has been used as a control compound, and will be referred to as such.
Male C57Bl6 mice were obtained from Jackson Laboratories and had been fed a high fat diet (60% kcal fat) for eight weeks. The mice were fed an identical high fat diet (Research Diet D12492) upon arrival and during the study. All mice were treated with the subject compound at 30 or 100 mg/kg, control compound (WAY-362450) at 30 mg/kg or vehicle by oral gavage daily for three days. On the final day, 10 animals from each group began an 24 hour fast and then were sacrificed (fasted groups 1a,2a,3a,4a). Alternatively, 10 animals from each group underwent a 24 hour fast followed by a 12 hour re-feed period with the same high fat diet ad libitum and then were sacrificed (re-fed groups 1b,2b,3b,4b).
(§1) Body weights were monitored at the start and end of the protocol. After completing the fast or fast/re-feed conditions, the mice were given avertin for anesthesia by intraperitoneal administration. Whole blood was collected by cardiac puncture and the mice were terminated by cervical dislocation. Livers were collected surgically, weighed and immediately frozen in liquid nitrogen. The blood was placed in Li-heparin treated tubes, centrifuged to collect plasma and the plasma frozen.
The plasma was analyzed by standard colorimetric assays for glucose, insulin, triglycerides and cholesterol. Frozen liver samples were pulverized and extracted in ethanolic KOH and analyzed for liver triglycerides and cholesterol.

[4] = tested on: Sprague Dawley rats on a high fructose diet; test: Rat High Fructose Model with Fast/Re-Feed; format: in vivo; conditions: for body weight change relative to the Vehicle group: FIG. 1; for decrease in plasma glucose compared to vehicle / reduction in plasma insulin levels: after fast and re-feed
Description: Rat High Fructose Model with Fast/Re-Feed
Another standard model of human hyperlipidemia and insulin resistance is the rat fed a high fructose diet for several weeks (33). Additionally, since hepatic lipid synthesis is known to be regulated by food consumption, the fast/reefed cycle of Horton et al. (32) was incorporated into the chronic high fructose diet model. A compound disclosed above was evaluated in this model as an agent to restore insulin sensitivity and lower blood lipids.
Eight week old male Sprague Dawley rats were purchased from Harlan, Inc. The rats weighed 200-225 g upon arrival and were divided into groups as detailed in Table 2 and were immediately placed on a high fructose diet (60% kcal fructose; Open Source Diet # D00111301) ad libitum for three weeks. During the last week of feeding the high fructose diet, the rats were dosed with vehicle (5% solutol, 8% β cyclo-dextrin), subject compound at 30 mg/kg or 100 mg/kg or the control compound at 30 mg/kg by oral gavage once daily for 7 days. On the final day, all animals were placed on a […] followed by a 12 hour re-feed period on the high fructose diet ad libitum.
as §1, with “throughout” for “at the start and end of”, “rats” for “mice”
The plasma was analyzed by standard colorimetric assays for glucose, insulin, triglycerides and cholesterol.

[5] = 30 mg/kg oral gavage daily for three days
[6] = fasted and re-fed mice, 30 mg/kg
[7] = fasted only mice, 30 mg/kg oral gavage daily for three days
[8] = 30 mg/kg oral gavage once daily for 7 days

Sequence of PASK (Homo sapiens (Human), UniProt Q96RG2) (Q96RG2 999-1251): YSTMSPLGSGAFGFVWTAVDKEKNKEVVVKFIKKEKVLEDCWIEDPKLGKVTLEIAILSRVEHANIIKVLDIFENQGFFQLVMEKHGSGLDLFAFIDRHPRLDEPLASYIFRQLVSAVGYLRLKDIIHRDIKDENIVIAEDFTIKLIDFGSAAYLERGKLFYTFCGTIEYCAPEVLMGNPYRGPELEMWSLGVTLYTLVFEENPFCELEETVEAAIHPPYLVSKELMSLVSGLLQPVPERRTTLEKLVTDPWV

CC(C)N(C)c1nc2cc(C(=O)O)ccc2nc1-c1ccc2c(c1)OCO2 [Example 77, 2-(Benzo[d][1,3]dioxol-5-yl)-3-(isopropyl(methyl)amino)quinoxaline-6-carboxylic acid]
pIC50 (PASK [1]): ≥ 5.00
pIC50 (PASK [2]): > 5.00

COCC1CCCN(c2nc3cc(C(=O)O)ccc3nc2-c2ccc(F)cc2)C1 (stereo not shown) [Example 78, 2-(4-Fluorophenyl)-3-(3-(methoxymethyl)piperidin-1-yl)quinoxaline-6-carboxylic acid]
pIC50 (PASK [1]): ≥ 5.00
pIC50 (PASK [2]): > 5.00

CC1(C)CCCN(c2nc3cc(C(=O)O)ccc3nc2-c2ccc(F)cc2)C1 [Example 79, 3-(3,3-Dimethylpiperidin-1-yl)-2-(4-fluorophenyl)quinoxaline-6-carboxylic acid]
pIC50 (PASK [1]): ≥ 5.00
pIC50 (PASK [2]): > 5.00

CC1CCCN(c2nc3cc(C(=O)O)ccc3nc2-c2ccc(F)cc2)C1 (stereo not shown) [Example 80, 2-(4-Fluorophenyl)-3-(3-methylpiperidin-1-yl)quinoxaline-6-carboxylic acid]
pIC50 (PASK [1]): ≥ 5.00
pIC50 (PASK [2]): > 5.00

CC(C)N(C)c1nc2cc(C(=O)O)ccc2nc1-c1ccc2c(c1)OCCO2 [Example 81, 2-(2,3-Dihydrobenzo[b][1,4]dioxin-6-yl)-3-(isopropyl(methyl)amino)quinoxaline-6-carboxylic acid]
pIC50 (PASK [1]): ≥ 5.00
pIC50 (PASK [2]): > 5.00

C[C@H]1CCCN1c1nc2cc(C(=O)O)ccc2nc1-c1ccc2c(c1)OCO2 [Example 83, 2-(Benzo[d][1,3]dioxol-5-yl)-3-((S)-2-methylpyrrolidin-1-yl)quinoxaline-6-carboxylic acid]
pIC50 (PASK [1]): ≥ 5.00
pIC50 (PASK [2]): > 5.00

CC(C)N(C)c1nc2cc(C(=O)O)ccc2nc1-c1ccc2[nH]ccc2c1 [Example 84, 2-(1H-Indol-5-yl)-3-(isopropyl(methyl)amino)quinoxaline-6-carboxylic acid]
pIC50 (PASK [1]): ≥ 5.00
pIC50 (PASK [2]): > 5.00

CC(C)N(C)c1nc2cc(C(=O)O)ccc2nc1-c1ccncc1 [Example 87, 3-(Isopropyl(methyl)amino)-2-(pyridin-4-yl)quinoxaline-6-carboxylic acid]
pIC50 (PASK [1]): ≥ 5.00
pIC50 (PASK [2]): > 5.00

CC(C)N(C)c1nc2cc(C(=O)O)ccc2nc1-c1cc2ccccc2o1 [Example 89, 2-(Benzofuran-2-yl)-3-(isopropyl(methyl)amino)quinoxaline-6-carboxylic acid]
pIC50 (PASK [1]): ≥ 5.00
pIC50 (PASK [2]): > 5.00

CC(C)OC(=O)C1=CN(C(=O)c2ccc(F)c(F)c2)CC(C)(C)c2c1[nH]c1ccccc21 [WAY-362450, reference compound]
effects on liver weight ([3]; 30 mg/kg): identical to those of the subject compound at the same dose
increase in plasma glucose vs vehicle ([3]; fast and re-feed mice, 30 mg/kg): 7.6%
reduction in body weight vs vehicle [3, 5]: 6.5%
decrease in plasma insulin vs vehicle [3, 6]: 22%
decrease in plasma glucose vs vehicle ([3]; fasted only mice, 30 mg/kg): 19%
decrease in plasma insulin vs vehicle ([3]; fasted only mice, 30 mg/kg): 39%
decrease in body weight vs vehicle [3, 7]: 4%
body weight change relative to the Vehicle group [4, 8]: significant increase in body weight
increase in plasma cholesterol vs vehicle ([4]; 30 mg/kg, 7 days): 17%
reduction in plasma triglycerides vs vehicle ([4]; 30 mg/kg, 7 days): 68%
decrease in plasma glucose compared to vehicle ([4]; 30 mg/kg, 7 days): did not alter plasma glucose concentrations
reduction in plasma insulin levels ([4]; 30 mg/kg, 7 days): 63.2%

CC(C)N(C)c1nc2cc(C(=O)O)ccc2nc1-c1ccc(F)cc1 [subject compound]
reduction in liver weight ([3]; 30 and 100 mg/kg, trend of dose dependent reductions): 7-9%
decrease in plasma glucose vs vehicle ([3]; fast and re-feed mice, highest dose 100 mg/kg): up to 21%
reduction in body weight vs vehicle [3, 5]: 2.7%
reduction in body weight vs vehicle ([3]; 100 mg/kg oral gavage daily for three days): 5.1%
decrease in plasma insulin vs vehicle [3, 6]: 10%
decrease in plasma insulin vs vehicle ([3]; fasted and re-fed mice, 100 mg/kg): 28%
decrease in plasma glucose vs vehicle ([3]; fasted only mice, 30 mg/kg): 30%
decrease in body weight vs vehicle [3, 7]: 1.8%
decrease in plasma glucose vs vehicle ([3]; fasted only mice, 100 mg/kg): 43%
decrease in body weight vs vehicle ([3]; fasted only mice, 100 mg/kg oral gavage daily for three days): 5.1%
decrease in plasma insulin vs vehicle ([3]; fasted only mice, 30 and 100 mg/kg): up to 26%
body weight change relative to the Vehicle group [4, 8]: modest increase in body weight
decrease in plasma cholesterol vs vehicle ([4]; 30 mg/kg, 7 days): 5.7%
reduction in plasma triglycerides vs vehicle ([4]; 30 mg/kg, 7 days): 25.1%
decrease in plasma glucose compared to vehicle ([4]; 30 mg/kg, 7 days): 21.5%
reduction in plasma insulin levels ([4]; 30 mg/kg, 7 days): 15.4%
body weight change relative to the Vehicle group ([4]; 100 mg/kg oral gavage once daily for 7 days): modest decrease in body weight
decrease in plasma cholesterol vs vehicle ([4]; 100 mg/kg, 7 days): 10%
maximal reduction in liver weight ([4]; 100 mg/kg, 7 days): about 4%
reduction in plasma triglycerides vs vehicle ([4]; 100 mg/kg, 7 days): 54.3%
decrease in plasma glucose compared to vehicle ([4]; 100 mg/kg, 7 days): 26.3%
reduction in plasma insulin levels ([4]; 100 mg/kg, 7 days): 31.4%
